Data: US12365667B2, “Sulfone pyridine alkyl amide-substituted heteroaryl compounds” (BRISTOL-MYERS SQUIBB COMPANY, priority 2017, dated 2025)
pIC50: −log10 of the molar value.

The compounds below were run on IFNα-induced STAT phosphorylation (pSTAT5) in human whole blood (assay: IFNα-Induced STAT Phosphorylation in Human Whole Blood). Conditions: 1 h incubation with compound, 1000 U/mL recombinant human IFNα A/D for 15 min, pSTAT5 in CD3 positive population, read-out: IFNα-Induced Stat Phosph. (IC50).
Type: cell-based
Procedure: IFNα-Induced STAT Phosphorylation in Human Whole Blood
After an hour long incubation with compound, human whole blood (drawn with either EDTA or ACD-A as anti-coagulant) was stimulated with 1000 U/mL recombinant human IFNα A/D (R&D Systems 11200-2) for 15 min. The stimulation was stopped by adding Fix/Lyse buffer (BD 558049). Cells were stained with a CD3 FITC antibody (BD 555916), washed, and permeabilized on ice using Perm III buffer (BD 558050). Cells were then stained with an Alexa-Fluor 647 pSTAT5 (pY694) antibody (BD 612599) for 30 min prior to analysis on the FACS Canto II. The amount of pSTAT5 expression was quantitated by median fluorescence intensity after gating on the CD3 positive population.

pIC50	SMILES
6.64	CCC(O)(CC)c1cnc(Nc2cc(Nc3ncccc3S(C)(=O)=O)c(C(=O)NC)nn2)cc1Cl [Example 147]
7.89	CNC(=O)c1nnc(Nc2ccc(-n3cccc(C(F)(F)F)c3=O)cn2)cc1Nc1ncccc1S(C)(=O)=O [Example 92]
5.61	CNC(=O)c1cnc(Nc2cccc(-c3ccccc3)n2)cc1Nc1ncccc1S(C)(=O)=O [Example 238]
7.04	CNC(=O)c1nnc(Nc2cc(C(C)(C)O)c(Cl)cn2)cc1Nc1ncccc1S(C)(=O)=O [Example 29]
7.59	CNC(=O)c1nnc(NC(=O)[C@@H]2C[C@H]2F)cc1Nc1ncccc1S(C)(=O)=O [Example 43]
8.05	CNC(=O)c1nnc(Nc2ccc(N3CCOC(C)(C)C3)cn2)cc1Nc1ncccc1S(C)(=O)=O [Example 105]
6.26	CNC(=O)c1nnc(Nc2ccc(OC)nn2)cc1Nc1nc(F)ccc1S(C)(=O)=O [Example 181]
7.47	CNC(=O)c1cnc(Nc2cc(C)c(F)cn2)cc1Nc1ncccc1S(C)(=O)=O [Example 218]
5.76	CNC(=O)c1nnc(Nc2cc(C)nc(C)n2)cc1Nc1nc(C)ccc1S(C)(=O)=O [Example 185]
6.48	CNC(=O)c1nnc(Nc2cccc(-c3ccccc3)n2)cc1Nc1ncccc1S(C)(=O)=O [Example 117]
6.54	CNC(=O)c1cnc(NC(=O)C2CCC2)cc1Nc1ncccc1S(C)(=O)=O [Example 239]
7.74	CNC(=O)c1nnc(Nc2ccnc(C3CC3)n2)cc1Nc1ncccc1S(C)(=O)=O [Example 40]
5.97	CCC(=O)Nc1cc(Nc2nc(F)ccc2S(C)(=O)=O)c(C(=O)NC)nn1 [Example 179]
7.31	CCC(=O)Nc1cc(Nc2ncccc2S(C)(=O)=O)c(C(=O)NC)nn1 [Example 8]
7.36	CNC(=O)c1nnc(Nc2cnc3c(n2)CCCCC3)cc1Nc1ncccc1S(C)(=O)=O [Example 99]
7.31	CNC(=O)c1nnc(Nc2ccn(CC(F)(F)F)n2)cc1Nc1ncccc1S(C)(=O)=O [Example 26]
7.89	CNC(=O)c1nnc(Nc2ccc(OC3CCOC3)nn2)cc1Nc1ncccc1S(C)(=O)=O (stereo not shown) [Example 63]
6.74	CNC(=O)c1cnc(Nc2cc(C3CC3)nc(C3CC3)n2)cc1Nc1ncccc1S(C)(=O)=O [Example 228]
7.47	CNC(=O)c1nnc(NC(=O)C2CC2(F)F)cc1Nc1ncccc1S(C)(=O)=O (stereo not shown) [Example 45]
5.45	CNC(=O)c1nnc(Nc2ccc(C(C)(C)OC(=O)CN)cn2)cc1Nc1ncccc1S(C)(=O)=O [Example 67]
7.89	CNC(=O)c1nnc(Nc2ccc(N3CCOCC3=O)cn2)cc1Nc1ncccc1S(C)(=O)=O [Example 97]

pIC50	SMILES
7.70	CNC(=O)c1nnc(Nc2ccc(C(C)(C)N3CCCC3=O)cn2)cc1Nc1ncccc1S(C)(=O)=O [Example 76]
6.84	CCC(=O)Nc1cc(Nc2ncccc2S(C)(=O)=O)c(C(=O)NC)cn1 [Example 235]
8.15	CNC(=O)c1nnc(Nc2cc(COC)ccn2)cc1Nc1ncccc1S(C)(=O)=O [Example 156]
8.00	CNC(=O)c1nnc(Nc2ccc(OCCOC)cn2)cc1Nc1ncccc1S(C)(=O)=O [Example 158]
8.52	CNC(=O)c1nnc(Nc2ccc(N3CCOCC3)cn2)cc1Nc1ncccc1S(C)(=O)=O [Example 81]
7.82	CNC(=O)c1cnc(Nc2ccc(C#N)cn2)cc1Nc1ncccc1S(C)(=O)=O [Example 220]
8.00	CNC(=O)c1nnc(Nc2ccc(C(C)(C)C)nn2)cc1Nc1ncccc1S(C)(=O)=O [Example 245, 6-((6-(tert-butyl)pyridazinyl-3-yl)amino)-N-(methyl-d3)-4-((3-(methylsulfonyl)pyridin-2-yl)amino)pyridazine-3-carboxamide]
7.38	CNC(=O)c1nnc(Nc2cc(COC)ncn2)cc1Nc1ncccc1S(C)(=O)=O [Example 84]
7.21	CNC(=O)c1nnc(NC(=O)C=C(C)C)cc1Nc1ncccc1S(C)(=O)=O [Example 120]
6.44	CNC(=O)c1cnc(Nc2cc(C(F)(F)F)c(C#N)cn2)cc1Nc1ncccc1S(C)(=O)=O [Example 231]
7.68	CNC(=O)c1nnc(Nc2ccc(C(C)(C)OC)cn2)cc1Nc1ncccc1S(C)(=O)=O [Example 157]
6.88	CNC(=O)c1nnc(Nc2cnc(C(F)(F)F)cn2)cc1Nc1ncccc1S(C)(=O)=O [Example 95]
7.24	CNC(=O)c1nnc(Nc2cc(C3CC3)ccn2)cc1Nc1nc(C)ccc1S(C)(=O)=O [Example 197]
7.96	CNC(=O)c1nnc(Nc2ccccn2)cc1Nc1ncccc1S(C)(=O)=O [Example 160]
7.62	CNC(=O)c1cnc(Nc2ccc(C(F)(F)F)cn2)cc1Nc1ncccc1S(C)(=O)=O [Example 219]
5.91	CNC(=O)c1nnc(NC(=O)C2Cc3ccccc32)cc1Nc1ncccc1S(C)(=O)=O (stereo not shown) [Example 66]
5.97	CNC(=O)c1cnc(NC(=O)OC)cc1Nc1ncccc1S(C)(=O)=O [Example 237]
7.30	CNC(=O)c1nnc(Nc2cc(Cl)c(C(C)(C)O)cn2)cc1Nc1nc(OC)ccc1S(C)(=O)=O [Example 202]
5.84	CNC(=O)c1nnc(Nc2ccc(F)nc2)cc1Nc1ncccc1S(C)(=O)=O [Example 16]
7.34	Cn1ccc(Nc2cc(Nc3ncccc3S(C)(=O)=O)c(C(N)=O)nn2)n1 [compound 214]
6.86	CNC(=O)c1nnc(Nc2ccc(-c3ccccc3)cn2)cc1Nc1ncccc1S(C)(=O)=O [Example 102]

SMILES	pIC50
CNC(=O)c1nnc(Nc2ccc(C(F)(F)F)nn2)cc1Nc1ncccc1S(C)(=O)=O [Example 19]	7.36
CNC(=O)c1nnc(Nc2ccc(C(C)(C)N)cn2)cc1Nc1ncccc1S(C)(=O)=O [Example 24]	8.05

Same assay, conditions: Homo sapiens, 1 h incubation with compound, 1000 U/mL recombinant human IFNα A/D for 15 min, pSTAT5 in CD3 positive population, read-out: IFNα-Induced Stat Phosph. (IC50)

pIC50	SMILES
7.40	[2H]C([2H])([2H])NC(=O)c1nnc(Nc2ccn(C)n2)cc1Nc1ncccc1S(C)(=O)=O [Example 166, N-trideuteromethyl-6-((1-methyl-1H-pyrazol-3-yl)amino)-4-((3-(methylsulfonyl)pyridin-2-yl)amino)pyridazine-3-carboxamide]
7.92	[2H]C([2H])([2H])NC(=O)c1nnc(NC(=O)C2CC2)cc1Nc1ncccc1S(C)(=O)=O [Example 159, 6-(cyclopropanecarboxamido)-N-trideuteromethyl-4-((3-(methylsulfonyl)pyridin-2-yl)amino)pyridazine-3-carboxamide]
7.92	[2H]C([2H])([2H])NC(=O)c1nnc(Nc2ccc(F)cn2)cc1Nc1ncccc1S(C)(=O)=O [Example 1, 6-((5-fluoropyridin-2-yl)amino)-N-(methyl-d3)-4-((3-(methylsulfonyl)pyridin-2-yl)amino)pyridazine-3-carboxamide]
7.47	[2H]C([2H])([2H])NC(=O)c1nnc(Nc2ccc(OC(F)F)nn2)cc1Nc1ncccc1S(C)(=O)=O [Example 246, 6-((6-(difluoromethoxy)pyridazin-3-yl)amino)-N-(methyl-d3)-4-((3-(methylsulfonyl)pyridin-2-yl)amino)pyridazine-3-carboxamide]
8.05	[2H]C([2H])([2H])NC(=O)c1nnc(Nc2ccc(C(C)(C)OC(C)=O)cn2)cc1Nc1ncccc1S(C)(=O)=O [Example 171, 2-(6-((6-((methyl-d3)carbamoyl)-5-((3-(methylsulfonyl)pyridin-2-yl)amino)pyridazin-3-yl)amino)pyridin-3-yl)propan-2-yl acetate]
